Assay results taken from patent US20260365663A1, “EMOPAMIL-BINDING PROTEIN INHIBITORS AND USES THEREOF” (BIOGEN MA INC., priority 2022, published 2026).
Where two headings read alike, the source gives them in different places.

Molecular target: T1, EBP (Homo sapiens, UniProt Q15125)
T1 construct: HEK293T cells were utilized as the source of EBP enzyme; endogenous in cells; host or cells: HEK293T
Assay: EBP Functional Assay (EBP immunoaffinity LC-MS assay)
Format: biochemical
Experimental: The EBP immunoaffinity (IA) LC-MS assay measures the potency of small molecule inhibitors of EBP by quantifying their concentration-dependent changes in the enzyme's substrate and product using liquid chromatography atmospheric pressure chemical ionization multiple reaction monitoring mass spectrometry (LC-APCI MRM MS). HEK293T cells were utilized as the source of EBP enzyme. The enzyme was incubated with the small molecule inhibitors at variable concentrations for 30 min. Deuterated form of EBP substrate, zymosterol-d5 (Avanti Polar Lipids, Cat #700068P-1 mg), was then added and the plate was incubated at 37 °C for 4 h. Finally, the sterol isomers were extracted and injected to LC-APCI MRM MS. MRM transition used for the quantification for both zymosterol and dihydrolathosterol (substrate and product of EBP enzymatic reaction, respectively) is 372.3-203.2, CE 30 and DP 80 in positive ion mode. Percent conversion of the zymosterol-d5 to dehydrolathosterol-d5 was used to derive IC50 curves. Tasin-1 (1′-[(4-Methoxyphenyl)sulfonyl]-4-methyl-1,4′-bipiperidine, CAS 792927-06-1) was used as the reference small molecule inhibitor.
Percent conversion versus the compound concentration data were fit to the following 4-parameter logistic model to generate IC50 curves: […]

[1] = HEK293T cells as source of EBP enzyme, zymosterol-d5 substrate, inhibitor 30 min, then 37 °C for 4 h, percent conversion to dehydrolathosterol-d5 by LC-APCI MRM MS, read-out: EBP Functional Assay

T1 sequence (Q15125 whole entry): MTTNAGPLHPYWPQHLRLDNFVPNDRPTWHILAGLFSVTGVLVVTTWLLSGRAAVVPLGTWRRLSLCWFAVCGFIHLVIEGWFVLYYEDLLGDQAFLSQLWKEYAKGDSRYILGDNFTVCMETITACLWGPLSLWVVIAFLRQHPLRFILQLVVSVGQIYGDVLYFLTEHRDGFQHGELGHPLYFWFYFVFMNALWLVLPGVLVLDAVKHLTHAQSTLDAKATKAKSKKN

Compound | IC50 [1] [nM] | IC50 [nM]
Cc1nc(C(F)(F)F)ccc1S(=O)(=O)N1CC2(CC[C@@H](N3CCOCC3)C2)C1 (single isomer, unassigned) [Example 60] | < 100 | –
Cc1nc(C(F)(F)F)ccc1S(=O)(=O)N1CC2(CC[C@H](N3CCOCC3)C2)C1 (single isomer, unassigned) [Example 61] | 100 to 500 | –
Cc1cc(C(F)(F)F)ncc1S(=O)(=O)N1CC2(CC[C@@H](N3CCOCC3)C2)C1 (single isomer, unassigned) [Example 62] | < 100 | –
Cc1cc(C(F)(F)F)ncc1S(=O)(=O)N1CC2(CC[C@H](N3CCOCC3)C2)C1 (single isomer, unassigned) [Example 63] | 100 to 500 | –
Cc1nc(Cl)ccc1S(=O)(=O)N1CC2(CC[C@@H](N3CCOCC3)C2)C1 (single isomer, unassigned) [Example 64] | < 100 | –
Cc1nc(Cl)ccc1S(=O)(=O)N1CC2(CC[C@H](N3CCOCC3)C2)C1 (single isomer, unassigned) [Example 65] | 100 to 500 | –
Cc1cc(S(=O)(=O)N2CC3(CC[C@@H](N4CCOCC4)C3)C2)n(C)n1 (single isomer, unassigned) [Example 66] | 100 to 500 | –
Cc1cc(S(=O)(=O)N2CC3(CC[C@H](N4CCOCC4)C3)C2)n(C)n1 (single isomer, unassigned) [Example 67] | 500 to 3000 | –
Cc1nc(C(C)(F)F)ccc1S(=O)(=O)N1CC2(CC(N3CC4(COC4)C3)C2)C1 [Example 1, 6-(2-((6-(1,1-Difluoroethyl)-2-methylpyridin-3-yl)sulfonyl)-2-azaspiro[3.3]heptan-6-yl)-2-oxa-6-azaspiro[3.3]heptane] | < 100 | –
Cc1nc(C(C)(F)F)ccc1S(=O)(=O)N1CC2(CC(NC3CCOCC3)C2)C1 [Example 2, 2-((6-(1,1-Difluoroethyl)-2-methylpyridin-3-yl)sulfonyl)-N-(tetrahydro-2H-pyran-4-yl)-2-azaspiro[3.3]heptan-6-amine] | < 100 | –
Cc1nc(C(F)(F)F)ccc1S(=O)(=O)N1CC2(CC(NC3CCOCC3)C2)C1 [Example 3, 2-((2-Methyl-6-(trifluoromethyl)pyridin-3-yl)sulfonyl)-N-(tetrahydro-2H-pyran-4-yl)-2-azaspiro[3.3]heptan-6-amine] | 100 to 500 | –
Cc1nc(C(F)(F)F)ccc1S(=O)(=O)N1CC2(CC(N3CC4(COC4)C3)C2)C1 [Example 4, 6-(2-((2-Methyl-6-(trifluoromethyl)pyridin-3-yl)sulfonyl)-2-azaspiro[3.3]heptan-6-yl)-2-oxa-6-azaspiro[3.3]heptane] | – | 500 to 3000
Cc1nc(C(F)(F)F)ccc1S(=O)(=O)N1CC2(CC(N3CCOCC3)C2)C1 [Example 5, 4-(2-((2-Methyl-6-(trifluoromethyl)pyridin-3-yl)sulfonyl)-2-azaspiro[3.3]heptan-6-yl)morpholine] | 100 to 500 | –
Cc1nc(C(F)(F)F)ccc1S(=O)(=O)N1CC2(CC(N3CC4(CCO4)C3)C2)C1 [Example 6, 6-(2-((2-Methyl-6-(trifluoromethyl)pyridin-3-yl)sulfonyl)-2-azaspiro[3.3]heptan-6-yl)-1-oxa-6-azaspiro[3.3]heptane] | – | 500 to 3000
Cc1nc(C(F)(F)F)ccc1S(=O)(=O)N1CC2(CC(NC3(C4CCOCC4)CC3)C2)C1 [Example 7, 2-((2-Methyl-6-(trifluoromethyl)pyridin-3-yl)sulfonyl)-N-(1-(tetrahydro-2H-pyran-4-yl)cyclopropyl)-2-azaspiro[3.3]heptan-6-amine] | 100 to 500 | –
Cc1nc(C(F)(F)F)ccc1S(=O)(=O)N1CC2(CC(NC3COC3)C2)C1 [Example 8, 2-((2-Methyl-6-(trifluoromethyl)pyridin-3-yl)sulfonyl)-N-(oxetan-3-yl)-2-azaspiro[3.3]heptan-6-amine] | 500 to 3000 | –
Cc1nc(C(F)(F)F)ccc1S(=O)(=O)N1CC2(CC(NCC3(C)COC3)C2)C1 [Example 9, 2-((2-Methyl-6-(trifluoromethyl)pyridin-3-yl)sulfonyl)-N-((3-methyloxetan-3-yl)methyl)-2-azaspiro[3.3]heptan-6-amine] | < 100 | –
Cn1nc(C(F)(F)F)cc1S(=O)(=O)N1CC2(CC(N3CCOCC3)C2)C1 [Example 10, 4-(2-((1-Methyl-3-(trifluoromethyl)-1H-pyrazol-5-yl)sulfonyl)-2-azaspiro[3.3]heptan-6-yl)morpholine] | 100 to 500 | –

Compound | IC50 [1] [nM] | IC50 [nM]
Cn1nc(C(F)(F)F)cc1S(=O)(=O)N1CC2(CC(NCC3COC3)C2)C1 [Example 11, 2-((1-Methyl-3-(trifluoromethyl)-1H-pyrazol-5-yl)sulfonyl)-N-(oxetan-3-ylmethyl)-2-azaspiro[3.3]heptan-6-amine] | 100 to 500 | –
Cn1nc(C(F)(F)F)cc1S(=O)(=O)N1CC2(CC(NCC3(C)COC3)C2)C1 [Example 12, 2-((1-Methyl-3-(trifluoromethyl)-1H-pyrazol-5-yl)sulfonyl)-N-((3-methyloxetan-3-yl)methyl)-2-azaspiro[3.3]heptan-6-amine] | < 100 | –
Cn1nc(C(F)(F)F)cc1S(=O)(=O)N1CC2(CC(NC3COC3)C2)C1 [Example 13, 2-((1-Methyl-3-(trifluoromethyl)-1H-pyrazol-5-yl)sulfonyl)-N-(oxetan-3-yl)-2-azaspiro[3.3]heptan-6-amine] | 500 to 3000 | –
Cn1nc(C(F)(F)F)cc1S(=O)(=O)N1CC2(CC(N3CC4(COC4)C3)C2)C1 [Example 14, 6-(2-((1-Methyl-3-(trifluoromethyl)-1H-pyrazol-5-yl)sulfonyl)-2-azaspiro[3.3]heptan-6-yl)-2-oxa-6-azaspiro[3.3]heptane] | – | 500 to 3000
Cn1nc(C(F)(F)F)cc1S(=O)(=O)N1CC2(CC(N3CC4(CCO4)C3)C2)C1 [Example 15, 6-(2-((1-Methyl-3-(trifluoromethyl)-1H-pyrazol-5-yl)sulfonyl)-2-azaspiro[3.3]heptan-6-yl)-1-oxa-6-azaspiro[3.3]heptane] | – | 500 to 3000
Cc1nc(C(F)(F)F)ncc1S(=O)(=O)N1CC2(CC(N3CC4(CCO4)C3)C2)C1 [Example 16, 6-(2-((4-Methyl-2-(trifluoromethyl)pyrimidin-5-yl)sulfonyl)-2-azaspiro[3.3]heptan-6-yl)-1-oxa-6-azaspiro[3.3]heptane] | 500 to 3000 | –
Cc1nc(C(F)(F)F)ncc1S(=O)(=O)N1CC2(CC(N3CC4(COC4)C3)C2)C1 [Example 17, 6-(2-((4-Methyl-2-(trifluoromethyl)pyrimidin-5-yl)sulfonyl)-2-azaspiro[3.3]heptan-6-yl)-2-oxa-6-azaspiro[3.3]heptane] | – | > 3000
Cc1nc(C(F)(F)F)ccc1S(=O)(=O)NC1CC2(C1)CN(C1CCOCC1)C2 [Example 18, 2-Methyl-N-(2-(tetrahydro-2H-pyran-4-yl)-2-azaspiro[3.3]heptan-6-yl)-6-(trifluoromethyl)pyridine-3-sulfonamide] | 500 to 3000 | –
CC(C)c1cc(S(=O)(=O)N2CC3(CC(N4CCOCC4)C3)C2)n(C)n1 [Example 19, 4-(2-((3-Isopropyl-1-methyl-1H-pyrazol-5-yl)sulfonyl)-2-azaspiro[3.3]heptan-6-yl)morpholine] | – | < 100
CC1CCN(C2CC3(C2)CN(S(=O)(=O)c2ccc(OC(F)F)cc2)C3)CC1 [Example 20, 2-((4-(Difluoromethoxy)phenyl)sulfonyl)-6-(4-methylpiperidin-1-yl)-2-azaspiro[3.3]heptane] | 500 to 3000 | –
COc1ncc(C)cc1S(=O)(=O)N1CC2(CC(NC3CCOCC3)CO2)C1 (centres unmarked) [Example 21, 2-((2-Methoxy-5-methylpyridin-3-yl)sulfonyl)-N-(tetrahydro-2H-pyran-4-yl)-5-oxa-2-azaspiro[3.4]octan-7-amine] | 500 to 3000 | –
COc1ncc(C)cc1S(=O)(=O)N1CC2(CC(N3CC4(COC4)C3)CO2)C1 (centres unmarked) [Example 22, 2-((2-Methoxy-5-methylpyridin-3-yl)sulfonyl)-7-(2-oxa-6-azaspiro[3.3]heptan-6-yl)-5-oxa-2-azaspiro[3.4]octane] | – | 500 to 3000
COc1ncc(C)cc1S(=O)(=O)N1CC2(CC(N3CC(OC)C3)CO2)C1 (centres unmarked) [Example 23, 2-((2-Methoxy-5-methylpyridin-3-yl)sulfonyl)-7-(3-methoxyazetidin-1-yl)-5-oxa-2-azaspiro[3.4]octane] | 500 to 3000 | –
COc1ncc(C)cc1S(=O)(=O)N1CC2(CC(NC3CCC(F)(F)CC3)CO2)C1 (centres unmarked) [Example 24, N-(4,4-Difluorocyclohexyl)-2-((2-methoxy-5-methylpyridin-3-yl)sulfonyl)-5-oxa-2-azaspiro[3.4]octan-7-amine] | 100 to 500 | –
COc1ncc(C)cc1S(=O)(=O)N1CC2(CC(NC3CC(F)(F)C3)CO2)C1 (centres unmarked) [Example 25, N-(3,3-Difluorocyclobutyl)-2-((2-methoxy-5-methylpyridin-3-yl)sulfonyl)-5-oxa-2-azaspiro[3.4]octan-7-amine] | 500 to 3000 | –
N#Cc1ccc(F)c(S(=O)(=O)N2CC3(CC(NC4CCC(F)(F)CC4)CO3)C2)c1 (centres unmarked) [Example 26, 3-((7-((4,4-Difluorocyclohexyl)amino)-5-oxa-2-azaspiro[3.4]octan-2-yl)sulfonyl)-4-fluorobenzonitrile] | 500 to 3000 | –
N#Cc1ccc(F)c(S(=O)(=O)N2CC3(CC(NC4CCOCC4)CO3)C2)c1 (centres unmarked) [Example 27, 4-Fluoro-3-((7-((tetrahydro-2H-pyran-4-yl)amino)-5-oxa-2-azaspiro[3.4]octan-2-yl)sulfonyl)benzonitrile] | 500 to 3000 | –
